Measurements taken from patent publication US10329289B2, “6,7-dihydro-5H-pyrrolo[3,4-B]pyridin-5-one allosteric modulators of the M4 muscarinic acetylcholine receptor” (Merck Sharp & Dohme Corp., priority 2015, dated 2019).

Biological target: T1, human M4 muscarinic acetylcholine receptor (Homo sapiens, UniProt P08173)
T1 construct: expressed in transfected cells; host or cells: CHO-K1
T1 sequence (P08173 1-479): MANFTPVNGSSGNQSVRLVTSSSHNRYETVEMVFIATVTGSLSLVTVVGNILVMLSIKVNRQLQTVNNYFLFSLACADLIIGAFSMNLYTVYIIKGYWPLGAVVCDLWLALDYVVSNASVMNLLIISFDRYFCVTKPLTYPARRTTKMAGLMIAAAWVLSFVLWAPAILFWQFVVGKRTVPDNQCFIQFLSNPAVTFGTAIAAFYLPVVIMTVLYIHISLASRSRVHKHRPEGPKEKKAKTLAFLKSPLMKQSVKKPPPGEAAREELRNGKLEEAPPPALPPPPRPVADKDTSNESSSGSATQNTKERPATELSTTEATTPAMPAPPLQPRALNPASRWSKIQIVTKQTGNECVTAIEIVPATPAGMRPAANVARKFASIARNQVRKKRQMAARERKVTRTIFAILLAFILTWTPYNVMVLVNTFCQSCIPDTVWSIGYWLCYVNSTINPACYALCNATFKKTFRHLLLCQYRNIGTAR
Experiment: human FLIPR-based M4 PAM assay (Ca2+ mobilization, CHO-K1 cells with human M4 receptor and Gαqi5)
Type: cell-based
Conditions: acetylcholine at 20% of maximum response, read-out: M4 PAM IP
Outline: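 CHO-K1 cells stably expressing human M4 and chimeric Gαqi5 were dye-loaded ~1 h at 37 °C and read for Ca2+ fluorescence. Compound followed by acetylcholine at an EC20 (sometimes an EC70 third addition); inflection point from a 4-parameter logistic fit.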

Row | Compound | EC50
1 | COC(=O)CN1Cc2nc(N3CCC(Oc4ccc(OC)nc4)CC3)c(C)cc2C1=O [Example 260, methyl 2-(2-(4-((6-methoxypyridin-3-yl)oxy)piperidin-1-yl)-3-methyl-5-oxo-5,7-dihydro-6H-pyrrolo[3,4-b]pyridin-6-yl)acetate] | 0.141 µM
2 | COCCN1Cc2nc(N3CCC(Oc4ccc5c(c4)COC5)CC3)c(C)c(C)c2C1=O [Example 260A, 2-(4-((1,3-dihydro-2-benzofuran-5-yl)oxy)piperidin-1-yl)-6-(2-methoxyethyl)-3,4-dimethyl-6,7-dihydro-5H-pyrrolo[3,4-b]pyridin-5-one] | 0.043 µM
3 | Cc1c(N2CC[C@@H](Oc3ccc4c(c3)COC4)[C@@H](F)C2)nc2c(c1C)C(=O)N(CCO)C2 [Example 261, 2-((3S,4R)-4-((1,3-dihydro-2-benzofuran-5-yl)oxy)-3-fluoropiperidin-1-yl)-6-(2-hydroxyethyl)-3,4-dimethyl-6,7-dihydro-5H-pyrrolo[3,4-b]pyridin-5-one] | 0.039 µM
4 | Cc1cc2c(nc1N1CCC(Oc3ccc4c(c3)COC4)CC1)CN(CCO)C2=O [Example 263, 2-(4-((1,3-dihydro-2-benzofuran-5-yl)oxy)piperidin-1-yl)-6-(2-hydroxyethyl)-3-methyl-6,7-dihydro-5H-pyrrolo[3,4-b]pyridin-5-one] | 0.057 µM
5 | Cc1cc2c(nc1N1CCC(Oc3ccc(F)cc3)CC1)CN(CCO)C2=O [Example 264, 2-(4-(4-Fluorophenoxy)piperidin-1-yl)-6-(2-hydroxyethyl)-3-methyl-6,7-dihydro-5H-pyrrolo[3,4-b]pyridin-5-one] | 0.036 µM
6 | Cc1c(N2CCC(Oc3ccc4c(c3)C[C@@H](O)C4)CC2)nc2c(c1C)C(=O)N(CCO)C2 [Example 264E, (S)-2-(4-((2-hydroxy-2,3-dihydro-1H-inden-5-yl)oxy)piperidin-1-yl)-6-(2-hydroxyethyl)-3,4-dimethyl-6,7-dihydro-5H-pyrrolo[3,4-b]pyridin-5-one] | 0.125 µM
7 | Cc1c(N2CCC(Oc3ccccc3)CC2)nc2c(c1C)C(=O)N(CCO)C2 [Example 265, 6-(2-hydroxyethyl)-3,4-dimethyl-2-(4-phenoxypiperidin-1-yl)-6,7-dihydro-5H-pyrrolo[3,4-b]pyridin-5-one] | 0.046 µM
8 | CCc1cc2c(nc1N1CCC(Oc3ccc4c(c3)OCC4)CC1)CN(CCO)C2=O [Example 265A, 2-(4-((2,3-dihydrobenzofuran-6-yl)oxy)piperidin-1-yl)-3-ethyl-6-(2-hydroxyethyl)-6,7-dihydro-5H-pyrrolo[3,4-b]pyridin-5-one] | 0.1 µM
9 | Cc1c(N2CCC(OC[C@@]3(C)CC3(F)F)CC2)nc2c(c1C)C(=O)N(CCO)C2 [Example 265B, (R)-2-(4-((2,2-difluoro-1-methylcyclopropyl)methoxy)piperidin-1-yl)-6-(2-hydroxyethyl)-3,4-dimethyl-6,7-dihydro-5H-pyrrolo[3,4-b]pyridin-5-one] | 0.123 µM
10 | Cc1c(N2CCC(OC[C@]3(C)CC3(F)F)CC2)nc2c(c1C)C(=O)N(CCO)C2 [Example 265C, (S)-2-(4-((2,2-difluoro-1-methylcyclopropyl)methoxy)piperidin-1-yl)-6-(2-hydroxyethyl)-3,4-dimethyl-6,7-dihydro-5H-pyrrolo[3,4-b]pyridin-5-one] | 0.041 µM
11 | Cc1c(N2CCC(Oc3ccc4c(c3)OCC4)CC2)nc2c(c1C)C(=O)N(CCO)C2 [Example 266A, 2-(4-((2,3-dihydrobenzofuran-6-yl)oxy)piperidin-1-yl)-6-(2-hydroxyethyl)-3,4-dimethyl-6,7-dihydro-5H-pyrrolo[3,4-b]pyridin-5-one] | 0.044 µM
12 | Cc1c(N2CCC(Oc3ccc4c(c3)COC4)CC2)nc2c(c1C)C(=O)N([C@@H](C)CO)C2 [Example 266D, (S)-2-(4-((1,3-dihydro-2-benzofuran-5-yl)oxy)piperidin-1-yl)-6-(1-hydroxypropan-2-yl)-3,4-dimethyl-6,7-dihydro-5H-pyrrolo[3,4-b]pyridin-5-one] | 0.043 µM
13 | CCc1cc2c(nc1N1CC[C@H](OCC3(C)CC3)[C@@H](F)C1)CN(CCO)C2=O [Example 266E, 3-ethyl-2-((3S,4S)-3-fluoro-4-((1-methylcyclopropyl)methoxy)piperidin-1-yl)-6-(2-hydroxyethyl)-6,7-dihydro-5H-pyrrolo[3,4-b]pyridin-5-one] | 0.159 µM
14 | CCc1cc2c(nc1N1CCC(Oc3ccc4c(c3)COCC4)CC1)CN(CCO)C2=O [Example 267A, 3-ethyl-6-(2-hydroxyethyl)-2-(4-(isochroman-7-yloxy)piperidin-1-yl)-6,7-dihydro-5H-pyrrolo[3,4-b]pyridin-5-one] | 0.102 µM
15 | CO[C@@H]1Cc2ccc(OC3CCN(c4nc5c(c(C)c4C)C(=O)N(CCO)C5)CC3)cc2C1 [Example 267C, (R)-6-(2-hydroxyethyl)-2-(4-((2-methoxy-2,3-dihydro-1H-inden-5-yl)oxy)piperidin-1-yl)-3,4-dimethyl-6,7-dihydro-5H-pyrrolo[3,4-b]pyridin-5-one] | 0.109 µM

Now from value to molecule:

Row | EC50 | Compound
16 | 0.043 µM | Cc1cc2c(nc1N1CC[C@@H](Oc3ccc(F)cc3)[C@@H](F)C1)CN(CCO)C2=O [Example 262, 2-((3S,4R)-3-fluoro-4-(4-fluorophenoxy)piperidin-1-yl)-6-(2-hydroxyethyl)-3-methyl-6,7-dihydro-5H-pyrrolo[3,4-b]pyridin-5-one]
17 | 0.04 µM | COCCN1Cc2nc(N3CCC(Oc4ccc5c(c4)COC5)CC3)c(C)cc2C1=O [Example 263A, 2-(4-((1,3-dihydro-2-benzofuran-5-yl)oxy)piperidin-1-yl)-6-(2-methoxyethyl)-3-methyl-6,7-dihydro-5H-pyrrolo[3,4-b]pyridin-5-one]
18 | 0.038 µM | Cc1c(N2CCC(Oc3ccc4c(c3)COC4)CC2)nc2c(c1C)C(=O)N(CCO)C2 [Example 264A, 2-(4-((1,3-Dihydro-2-benzofuran-5-yl)oxy)piperidin-1-yl)-6-(2-hydroxyethyl)-3,4-dimethyl-6,7-dihydro-5H-pyrrolo[3,4-b]pyridin-5-one]
19 | 0.079 µM | Cc1c(N2CCC(Oc3ccc4c(c3)C[C@H](O)C4)CC2)nc2c(c1C)C(=O)N(CCO)C2 [Example 264D, (R)-2-(4-((2-hydroxy-2,3-dihydro-1H-inden-5-yl)oxy)piperidin-1-yl)-6-(2-hydroxyethyl)-3,4-dimethyl-6,7-dihydro-5H-pyrrolo[3,4-b]pyridin-5-one]
20 | 0.065 µM | Cc1c(N2CCC(Oc3ccc4c(cnn4C)c3)CC2)nc2c(c1C)C(=O)N(CCO)C2 [Example 265D, 6-(2-hydroxyethyl)-3,4-dimethyl-2-(4-((1-methyl-1H-indazol-5-yl)oxy)piperidin-1-yl)-6,7-dihydro-5H-pyrrolo[3,4-b]pyridin-5-one]
21 | 0.046 µM | Cc1c(N2CCC(Oc3ccc4c(c3)CCOC4)CC2)nc2c(c1C)C(=O)N(CCO)C2 [Example 265F, 6-(2-hydroxyethyl)-2-(4-(isochroman-6-yloxy)piperidin-1-yl)-3,4-dimethyl-6,7-dihydro-5H-pyrrolo[3,4-b]pyridin-5-one]
22 | 0.105 µM | Cc1c(N2CCC(Oc3ccc(F)cc3)CC2)nc2c(c1C)C(=O)N(CCO)C2 [Example 266, 2-(4-(4-fluorophenoxy)piperidin-1-yl)-6-(2-hydroxyethyl)-3,4-dimethyl-6,7-dihydro-5H-pyrrolo[3,4-b]pyridin-5-one]
23 | 0.053 µM | Cc1c(N2CCC(Oc3ccc4c(c3)COC4)CC2)nc2c(c1C)C(=O)N(CC(=O)O)C2 [Example 266B, 2-(2-(4-((1,3-dihydro-2-benzofuran-5-yl)oxy)piperidin-1-yl)-3,4-dimethyl-5-oxo-5,7-dihydro-6H-pyrrolo[3,4-b]pyridin-6-yl)acetic acid]
24 | 0.064 µM | Cc1c(N2CCC(Oc3ccc4c(c3)COC4)CC2)nc2c(c1C)C(=O)N([C@H](C)CO)C2 [Example 266C, (R)-2-(4-((1,3-dihydro-2-benzofuran-5-yl)oxy)piperidin-1-yl)-6-(1-hydroxypropan-2-yl)-3,4-dimethyl-6,7-dihydro-5H-pyrrolo[3,4-b]pyridin-5-one]
25 | 0.057 µM | CCc1cc2c(nc1N1CCC(Oc3ccc4c(c3)CCOC4)CC1)CN(CCO)C2=O [Example 266F, 3-ethyl-6-(2-hydroxyethyl)-2-(4-(isochroman-6-yloxy)piperidin-1-yl)-6,7-dihydro-5H-pyrrolo[3,4-b]pyridin-5-one]
26 | 0.069 µM | Cc1c(N2CC[C@H](OCC3(C)CC3)[C@@H](F)C2)nc2c(c1C)C(=O)N(CCO)C2 [Example 266G, 2-((3S,4S)-3-fluoro-4-((1-methylcyclopropyl)methoxy)piperidin-1-yl)-6-(2-hydroxyethyl)-3,4-dimethyl-6,7-dihydro-5H-pyrrolo[3,4-b]pyridin-5-one]
27 | 0.034 µM | Cc1c(N2CCC(OCC3(C)CC3)CC2)nc2c(c1C)C(=O)N(CCO)C2 [Example 267, 6-(2-hydroxyethyl)-3,4-dimethyl-2-(4-((1-methylcyclopropyl)methoxy)piperidin-1-yl)-6,7-dihydro-5H-pyrrolo[3,4-b]pyridin-5-one]
28 | 0.08 µM | Cc1c(N2CCC(OCC3CCC3)CC2)nc2c(c1C)C(=O)N(CCO)C2 [Example 267B, 2-(4-(cyclobutylmethoxy)piperidin-1-yl)-6-(2-hydroxyethyl)-3,4-dimethyl-6,7-dihydro-5H-pyrrolo[3,4-b]pyridin-5-one]
